Reference: PubChem BioAssay AID2305 (GlaxoSmithKline (GSK), 2010)

test system: P. falciparum 3D7 growth, pLDH absorbance; test: P. falciparum 3D7 growth inhibition, dose response, strain 3D7 (AID 2305)

`O=C(NC1CCCCN(Cc2ccccc2O)C1)c1ccc(Cl)c(Cl)c1` (stereo not drawn) and `O=C(NC1CCN(Cc2ccccc2O)C1)c1cccc(C(F)(F)F)c1` (stereo not drawn) are within 1.5-fold of each other in IC50: 750 nM for the first, 730 nM for the second.

`CCCCCC(C)NC[C@@H](O)[C@H](Cc1ccccc1)NC(=O)c1cc(NCC)cc(N2CCCCS2(=O)=O)c1` (stereo partly drawn) and `CCNc1cc(C(=O)N[C@@H](Cc2ccccc2)[C@H](O)CN[C@H]2CCc3ccccc32)cc(N2CCCC2=O)c1` are within 1.5-fold of each other in IC50: 400 nM for the first, 290 nM for the second.

First: Cc1cc(NC2CCCC2)nc(Nc2ccc(F)cc2)n1
Second: CCCc1cc(N2CCC(N3CCCC3)CC2)nc(Nc2ccc(Cl)cc2)n1
The IC50 of the first is 1.6-fold lower: 470 nM for the first, 760 nM for the second. The first is the more potent here.

Compared with `CC[C@H]1CN2CC[C@H]1C[C@H]2[C@H](O)c1cc(-c2ccc(OC(F)(F)F)cc2)nc2ccc(OC)cc12`, `COc1ccc2nccc([C@@H](O)CN3CCC(NCc4ccc5cccc(O)c5n4)CC3)c2c1` is 23-fold higher in IC50: 50 nM for the first, 1130 nM for the second.

`O=C(Nc1ccc(-c2cccc(-c3nc4ccccc4[nH]3)c2)cc1)N[C@@H]1C[C@H]1c1ccccc1` and `Cc1cccc2[nH]c(-c3cccc(-c4ccc(NC(=O)Cc5ccccn5)cc4)c3)nc12` are within 1.5-fold of each other in IC50: 630 nM for the first, 790 nM for the second.

Compared with `CCOC(=O)C(=O)N1c2ccc(OCC)cc2-c2c(ssc2=S)C1(C)C`, `CCOc1cc(Br)c(C(C)NC(=O)c2ccccc2)cc1OCC` (stereo not drawn) is 3.9-fold higher in IC50: 220 nM for the first, 860 nM for the second.

Compared with `N#Cc1ccc(N2CCN(Cc3ccc(-c4ccc(-c5nc6ccccc6[nH]5)s4)cc3)CC2)nc1`, `c1cncc(CCNCc2ccc(-c3ccc(-c4nc5ccccc5[nH]4)s3)cc2)c1` is 5.1-fold lower in IC50: 1080 nM for the first, 210 nM for the second.

`O=C(NC1CC1)c1cnc(N2CCC(COc3cccc(F)c3)CC2)c(Cl)c1` and `COc1ccc2cc(C(=O)NC3CCC(CCN4CCc5cc(C#N)ccc5C4)CC3)[nH]c2c1` (stereo not drawn) are within 1.5-fold of each other in IC50: 1200 nM for the first, 1010 nM for the second.

`COc1ccc2c(NN=Cc3cccc([N+](=O)[O-])c3)ccnc2c1` and `CC(O)c1cccc(-c2ccc(Nc3ccnc4cc(-c5nccs5)ccc34)cc2)c1` (stereo not drawn) are within 1.5-fold of each other in IC50: 850 nM for the first, 1010 nM for the second.

`FC(F)(F)c1cccnc1N1CCC(Nc2nc3ccc(Cl)cc3[nH]2)CC1` and `O=C(c1cc2nc3c(c(C(F)(F)F)n2n1)CCc1ccccc1-3)N1CCN2CCCC2C1` (stereo not drawn) are within 1.5-fold of each other in IC50: 650 nM for the first, 950 nM for the second.

`CC(=O)Nc1ccc(OCCCCN(Cc2ccccc2OC(F)(F)F)c2ccc(C(F)(F)F)c(C#N)c2)c(Cl)c1` and `COc1ccc(-c2ccc(NC(=O)c3cccc(C#N)c3)cc2)cc1CN(C)C` are within 1.5-fold of each other in IC50: 530 nM for the first, 730 nM for the second.

Going from `Cc1ccc(Cn2cnc3cc(C(=O)Nc4ccc(-c5ccc(CN(C)C)cc5)cc4)ccc3c2=O)o1` to `COc1ccc(-c2ccc(NC(=O)c3cccc(F)c3)cc2)cc1CNC(C)C`, the IC50 falls from 1260 nM to 810 nM (1.6-fold). The second is the more potent here.

`CN(C)CCOc1ccc(-c2cc(-c3ccc(Cl)c(O)c3)c(-c3ccncc3)[nH]2)cc1` and `Cc1cccc2[nH]c(-c3ccc(-c4cccc(NC(=O)C(C)CN(C)C)c4)cc3)nc12` (stereo not drawn) are within 1.5-fold of each other in IC50: 580 nM for the first, 650 nM for the second.

`O=S(=O)(c1ccc(Oc2ccccc2)cc1)N(CCC(O)(C(F)(F)F)C(F)(F)F)Cc1cccc(O)c1` and `CC(C)(C)c1ccc(NC(=O)c2cccc(CN3CCCN(Cc4cccc(O)c4)CC3)c2)cc1` are within 1.5-fold of each other in IC50: 490 nM for the first, 550 nM for the second.

`O=C(N[C@@H](CC1CCCCC1)C(=O)NC1CCCc2ccccc21)c1ccc(O)c(-c2cccc(C(F)(F)F)c2)c1` (stereo partly drawn) and `CCN1CCC(N(Cc2ccc(-c3ccc(C(F)(F)F)cc3)cc2)C(=O)Cn2c(CCc3cccc(F)c3F)cc(=O)c3ccccc32)CC1` are within 1.5-fold of each other in IC50: 600 nM for the first, 830 nM for the second.

First: CCn1ncc2c(NC3CCOCC3)c(CNC(=O)c3ccnn3C)c(C)nc21
Second: CC=CC(=O)N1CCN(c2nccc(-c3ccc(C(C)(C)C)cc3)n2)CC1
The IC50 of the first is 2-fold lower: 530 nM for the first, 1080 nM for the second.

First: COc1cc(C(=O)Nc2ccc3nc(N4CCN(C)CC4)cc(C)c3c2)cc(OC)c1OC
Second: O=C(c1ccc(-c2ccccn2)s1)N1CCc2cc3nccc(N4CCN5CCC[C@H]5C4)c3cc21
The IC50 of the first is 2.6-fold lower: 290 nM for the first, 760 nM for the second. The first is the more potent here.

Compared with `COCC(=O)Nc1nc2ccccc2[nH]1`, `O=C(Nc1cccc(-c2ccc(-c3nc4ccccc4[nH]3)cc2)c1)c1cnn2cccnc12` is 3.5-fold higher in IC50: 300 nM for the first, 1060 nM for the second.

First: COc1ccc(Nc2nc(NCc3cccc(NS(C)(=O)=O)c3)cc(-c3ccc(OC)cc3)n2)cc1
Second: Cc1noc(C)c1-c1cccc(CNCc2ccc(-c3cccc(-c4nc5c(C)cccc5[nH]4)c3)cc2)c1
The IC50 of the first is 5.5-fold higher: 1220 nM for the first, 220 nM for the second.

First: c1cc(CN2CCN(CCN3CCOCC3)CC2)cc(-c2cccc(-c3nc4ccccc4[nH]3)c2)c1
Second: Cn1cccc1CCNCc1ccc(-c2cccc(-c3nc4ccc(F)cc4[nH]3)c2)cc1
The IC50 of the first is 5.1-fold lower: 240 nM for the first, 1220 nM for the second.

`CC(C)(C)N1CCC(N(Cc2ccc(-c3ccc(C(F)(F)F)cc3)cc2)C(=O)Cn2c(CCc3cccc(F)c3F)nc(=O)c3cccnc32)CC1` and `CCc1ccc(S(=O)(=O)Nc2ccc(CCN(C)C3CCN(C)CC3)cc2)cc1` are within 1.5-fold of each other in IC50: 760 nM for the first, 1060 nM for the second.

First: CCN(CC)c1ccc2nc(N)nc(N)c2c1Cl
Second: NC(N)=NN=CC(=O)Nc1ccc(Cl)cc1
The IC50 of the first is 27-fold lower: 30 nM for the first, 810 nM for the second. The first is the more potent here.

Compared with `N#Cc1ccc(NC(=O)Nc2ccc3c(c2)CCN(C2CCC2)CC3)cc1`, `O=C1c2ccccc2CN1CCCN1CCC(Oc2ccc(F)cc2)CC1` is 1.9-fold higher in IC50: 630 nM for the first, 1210 nM for the second. The first is the more potent here.

First: CCCNCc1ccc(-c2ccc(CN(C(=O)c3nn(-c4ccccc4)nc3C)C(C)CN(C)C)cc2)nc1 (stereo not drawn)
Second: O=C(NCCN1CCCCC1)N1CCCN(c2ncnc3cc(-c4ccccc4)sc23)CC1
The IC50 of the first is 4-fold higher: 920 nM for the first, 230 nM for the second.
